Results published in PubChem BioAssay (NCI).
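GI50: concentration for 50% inhibition of growth. TGI: concentration producing complete growth inhibition.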

Assays:
Test in all cases: growth of human tumour cells (NCI), 384-well format
SNB-75 CNS = tested on: SNB-75 CNS
MCF7 breast = tested on: MCF7 breast
SW-620 colon = tested on: SW-620 colon
MDA-MB-231 breast = tested on: MDA-MB-231 breast
U251 glioblastoma = tested on: U251 glioblastoma
NCI-H460 NSCLC = tested on: NCI-H460 NSCLC
HS 578T breast = tested on: HS 578T breast
COLO 205 colon = tested on: COLO 205 colon
SK-MEL-28 melanoma = tested on: SK-MEL-28 melanoma
SN12C renal = tested on: SN12C renal
HT29 colon = tested on: HT29 colon
NCI-H23 lung = tested on: NCI-H23 lung
SF-295 CNS = tested on: SF-295 CNS
BT-549 breast = tested on: BT-549 breast
HCT-116 colon = tested on: HCT-116 colon
LOX IMVI melanoma = tested on: LOX IMVI melanoma
NCI-H522 lung = tested on: NCI-H522 lung
MDA-MB-435 melanoma = tested on: MDA-MB-435 melanoma
UACC-257 melanoma = tested on: UACC-257 melanoma
HCC-2998 colon = tested on: HCC-2998 colon
SK-OV-3 ovarian = tested on: SK-OV-3 ovarian
NCI/ADR-RES ovarian = tested on: NCI/ADR-RES ovarian
HL-60(TB) leukemia = tested on: HL-60(TB) leukemia
PC-3 prostate = tested on: PC-3 prostate
EKVX NSCLC = tested on: EKVX NSCLC
UACC-62 melanoma = tested on: UACC-62 melanoma
CCRF-CEM leukemia = tested on: CCRF-CEM leukemia
RXF 393 renal = tested on: RXF 393 renal
SF-539 CNS = tested on: SF-539 CNS
SR leukemia = tested on: SR leukemia
KM12 colon = tested on: KM12 colon
T-47D breast = tested on: T-47D breast
CAKI-1 renal = tested on: CAKI-1 renal
MALME-3M melanoma = tested on: MALME-3M melanoma
UO-31 renal = tested on: UO-31 renal
ACHN renal = tested on: ACHN renal
HOP-92 NSCLC = tested on: HOP-92 NSCLC
MDA-MB-468 breast = tested on: MDA-MB-468 breast
HCT-15 colon = tested on: HCT-15 colon
OVCAR-3 ovarian = tested on: OVCAR-3 ovarian
NCI-H226 lung = tested on: NCI-H226 lung
RPMI-8226 leukemia = tested on: RPMI-8226 leukemia
M14 melanoma = tested on: M14 melanoma
HOP-62 NSCLC = tested on: HOP-62 NSCLC
A498 renal = tested on: A498 renal
DU-145 prostate = tested on: DU-145 prostate
786-0 renal = tested on: 786-0 renal
OVCAR-8 ovarian = tested on: OVCAR-8 ovarian
OVCAR-4 ovarian = tested on: OVCAR-4 ovarian
SK-MEL-5 melanoma = tested on: SK-MEL-5 melanoma
TK-10 renal = tested on: TK-10 renal
SNB-19 CNS = tested on: SNB-19 CNS
NCI-H322M lung = tested on: NCI-H322M lung
SF-268 CNS = tested on: SF-268 CNS

## COc1cc(Nc2ncc(F)c(Nc3ccc4c(n3)NC(=O)C(C)(C)O4)n2)cc(OC)c1OC
SNB-75 CNS
  GI50: 1170 nM
  TGI: 28 µM
MCF7 breast
  GI50: 3.9 µM
  TGI: > 100 µM
SW-620 colon
  GI50: > 100 µM
  TGI: > 100 µM
MDA-MB-231 breast
  GI50: 2580 nM
  TGI: 97 µM
U251 glioblastoma
  GI50: 38.9 µM
  TGI: > 100 µM
NCI-H460 NSCLC
  GI50: 11.3 µM
  TGI: > 100 µM
HS 578T breast
  GI50: 805 nM
  TGI: 18.4 µM
COLO 205 colon
  GI50: 4.34 µM
  TGI: 29.8 µM
SK-MEL-28 melanoma
  GI50: 43.8 µM
  TGI: > 100 µM
SN12C renal
  GI50: 258 nM
  TGI: > 100 µM
HT29 colon
  GI50: 10.6 µM
  TGI: > 100 µM
NCI-H23 lung
  GI50: 538 nM
  TGI: > 100 µM
SF-295 CNS
  GI50: 3.65 µM
  TGI: > 100 µM
BT-549 breast
  GI50: 4.37 µM
  TGI: > 100 µM
HCT-116 colon
  GI50: > 100 µM
  TGI: > 100 µM
LOX IMVI melanoma
  GI50: 6.19 µM
  TGI: > 100 µM
NCI-H522 lung
  GI50: 700 nM
  TGI: 13.1 µM
MDA-MB-435 melanoma
  GI50: 9.68 µM
  TGI: > 100 µM
UACC-257 melanoma
  GI50: > 100 µM
  TGI: > 100 µM
HCC-2998 colon
  GI50: 14.7 µM
  TGI: > 100 µM
SK-OV-3 ovarian
  GI50: 371 nM
  TGI: > 100 µM
NCI/ADR-RES ovarian
  GI50: 13.4 µM
  TGI: > 100 µM
HL-60(TB) leukemia
  GI50: 3.37 µM
  TGI: 8.28 µM
PC-3 prostate
  GI50: 8.94 µM
  TGI: > 100 µM
EKVX NSCLC
  GI50: 808 nM
  TGI: > 100 µM
UACC-62 melanoma
  GI50: > 100 µM
  TGI: > 100 µM
CCRF-CEM leukemia
  GI50: 9.52 µM
  TGI: > 100 µM
RXF 393 renal
  GI50: 516 nM
  TGI: 30.9 µM
SF-539 CNS
  GI50: 1240 nM
  TGI: 17.8 µM
SR leukemia
  GI50: 1270 nM
  TGI: 2720 nM
KM12 colon
  GI50: 346 nM
  TGI: > 100 µM
T-47D breast
  GI50: 52.6 µM
  TGI: > 100 µM
CAKI-1 renal
  GI50: 445 nM
  TGI: > 100 µM
MALME-3M melanoma
  GI50: 29.5 µM
  TGI: > 100 µM
UO-31 renal
  GI50: 55.1 µM
  TGI: > 100 µM
ACHN renal
  GI50: 1600 nM
  TGI: > 100 µM
HOP-92 NSCLC
  GI50: 15.4 µM
  TGI: > 100 µM
MDA-MB-468 breast
  GI50: 5.78 µM
  TGI: > 100 µM
HCT-15 colon
  GI50: 4.36 µM
  TGI: > 100 µM
OVCAR-3 ovarian
  GI50: 6.28 µM
  TGI: > 100 µM
NCI-H226 lung
  GI50: 319 nM
  TGI: 13.2 µM
RPMI-8226 leukemia
  GI50: > 100 µM
  TGI: > 100 µM
M14 melanoma
  GI50: 24.7 µM
  TGI: > 100 µM
HOP-62 NSCLC
  GI50: 5.75 µM
  TGI: 31.7 µM
A498 renal
  GI50: 20.6 µM
  TGI: > 100 µM
DU-145 prostate
  GI50: 14.6 µM
  TGI: > 100 µM
786-0 renal
  GI50: 16.3 µM
  TGI: > 100 µM
OVCAR-8 ovarian
  GI50: 4.11 µM
  TGI: 19.7 µM
OVCAR-4 ovarian
  GI50: 16.4 µM
  TGI: > 100 µM
SK-MEL-5 melanoma
  GI50: 7.41 µM
  TGI: > 100 µM
TK-10 renal
  GI50: > 100 µM
  TGI: > 100 µM
SNB-19 CNS
  GI50: 28.5 µM
  TGI: > 100 µM
NCI-H322M lung
  GI50: 4.17 µM
  TGI: > 100 µM
SF-268 CNS
  GI50: 2550 nM
  TGI: 47.4 µM
